Experiments:
Assay in all cases: relative viability (nuclei count vs DMSO), 5 days (fraction); higher = more cells survive
IMD-0354 + Bortezomib = compound: O=C(Nc1cc(C(F)(F)F)cc(C(F)(F)F)c1)c1cc(Cl)ccc1O [IMD-0354] + CC(C)C[C@H](NC(=O)[C@H](Cc1ccccc1)NC(=O)c1cnccn1)B(O)O [Bortezomib] (partner 0.002 µM)
Procedure, shortened: (§1)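 Cells from lung cancer lines were seeded into 1536-well plates and, one day later, dosed by pin tool. Treatments were either a single drug or a fixed dose of an anchor drug with five library-drug doses (not always all listed) in √10 steps. After 5 days, nuclei were stained in a one-step fixation (final 0.05% Triton X-100, 1% formaldehyde, 1 ug/ml Hoechst) and counted on 4× images, and relative viability is the treated-to-vehicle nuclei ratio, as the median of duplicate plates.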

CX-5461 + Crizotinib = compound: Cc1cnc(CNC(=O)c2c(=O)c3ccc(N4CCCN(C)CC4)nc3n3c2sc2ccccc23)cn1 [CX-5461] + C[C@@H](Oc1cc(-c2cnn(C3CCNCC3)c2)cnc1N)c1c(Cl)ccc(F)c1Cl [Crizotinib] (partner 1 µM)
Procedure, shortened: as §1

CX-5461 + Bortezomib = compound: Cc1cnc(CNC(=O)c2c(=O)c3ccc(N4CCCN(C)CC4)nc3n3c2sc2ccccc23)cn1 [CX-5461] + CC(C)C[C@H](NC(=O)[C@H](Cc1ccccc1)NC(=O)c1cnccn1)B(O)O [Bortezomib] (partner 0.002 µM)
Procedure, shortened: as §1

IMD-0354 + AZD7762 = compound: O=C(Nc1cc(C(F)(F)F)cc(C(F)(F)F)c1)c1cc(Cl)ccc1O [IMD-0354] + NC(=O)Nc1cc(-c2cccc(F)c2)sc1C(=O)N[C@H]1CCCNC1 [AZD7762] (partner 0.2 µM)
Procedure, shortened: as §1

| Cell Line | relative viability (IMD-0354 + Bortezomib; first compound 0.04 µM) | relative viability (IMD-0354 + Bortezomib; first compound 0.1265 µM) | relative viability (IMD-0354 + Bortezomib; first compound 0.4 µM) | relative viability (IMD-0354 + Bortezomib; first compound 1.265 µM) | relative viability (IMD-0354 + Bortezomib; first compound 4 µM) | relative viability (CX-5461 + Crizotinib; first compound 0.01 µM) | relative viability (CX-5461 + Crizotinib; first compound 0.03162 µM) | relative viability (CX-5461 + Crizotinib; first compound 0.1 µM) | relative viability (CX-5461 + Crizotinib; first compound 0.3162 µM) | relative viability (CX-5461 + Crizotinib; first compound 1 µM) | relative viability (CX-5461 + Bortezomib; first compound 0.01 µM) | relative viability (CX-5461 + Bortezomib; first compound 0.03162 µM) | relative viability (CX-5461 + Bortezomib; first compound 0.1 µM) | relative viability (CX-5461 + Bortezomib; first compound 0.3162 µM) | relative viability (CX-5461 + Bortezomib; first compound 1 µM) | relative viability (IMD-0354 + AZD7762; first compound 0.04 µM) | relative viability (IMD-0354 + AZD7762; first compound 0.1265 µM) | relative viability (IMD-0354 + AZD7762; first compound 0.4 µM) | relative viability (IMD-0354 + AZD7762; first compound 1.265 µM) | relative viability (IMD-0354 + AZD7762; first compound 4 µM) |
| --- | --- | --- | --- | --- | --- | --- | --- | --- | --- | --- | --- | --- | --- | --- | --- | --- | --- | --- | --- | --- |
| HCC-44 | 0.913 | 0.918 | 0.35 | 0.213 | 0.179 | 0.796 | 0.832 | 0.823 | 0.782 | 0.801 | 0.898 | 0.973 | 0.844 | 0.838 | 0.807 | 0.988 | 1.01 | 1.01 | 0.855 | 0.314 |
| HCC-78 | 0.419 | 0.438 | 0.443 | 0.561 | 0.382 | 0.357 | 0.36 | 0.358 | 0.243 | 0.328 | 0.434 | 0.485 | 0.548 | 0.498 | 0.428 | 0.783 | 0.658 | 0.543 | 0.672 | 0.485 |
| NCI-H727 | 0.841 | 0.923 | 0.532 | 0.38 | 0.359 | 0.695 | 0.835 | 0.692 | 0.767 | 0.703 | 1.03 | 0.812 | 0.596 | 0.718 | 0.662 | 0.589 | 0.727 | 0.484 | 0.44 | 0.398 |
| NCI-H2087 | 1.06 | 1 | 0.272 | 0.145 | 0.151 | 0.989 | 0.969 | 0.874 | 0.813 | 0.593 | 0.812 | 0.884 | 0.781 | 1.07 | 0.525 | 1.6 | 1.07 | 0.637 | 0.235 | 0.392 |
| BEN | 0.874 | 0.964 | 0.462 | 0.296 | 0.217 | 1 | 0.905 | 0.912 | 0.832 | 0.752 | 1.07 | 0.665 | 1.02 | 0.672 | 0.597 | 0.715 | 0.793 | 0.487 | 0.334 | 0.347 |
| LCLC-103H | 1.14 | 1.02 | 0.939 | 0.847 | 0.252 | 1.12 | 1.08 | 1.13 | 1.04 | 1.08 | 1.1 | 1.13 | 1.11 | 1.02 | 1.07 | 0.952 | 0.907 | 0.554 | 0.47 | 0.257 |
| EKVX | 1 | 1.39 |  | 0.716 | 0.187 | 1.12 | 0.997 | 0.899 |  | 0.827 | 1.29 | 1.04 | 1.01 |  | 0.838 | 0.741 | 0.625 |  | 0.328 | 0.21 |
| LXF-289 | 1.03 | 0.833 | 0.757 | 0.291 | 0.131 | 0.805 | 0.882 | 0.823 | 0.399 | 0.725 | 0.99 | 1.06 | 0.976 | 1.03 | 0.66 | 1.07 | 1.09 | 0.866 | 0.345 | 0.133 |
| ABC-1 | 0.35 | 0.332 | 0.343 | 0.213 | 0.218 | 1.07 | 1.57 |  | 0.57 | 0.323 | 0.297 | 0.282 |  | 0.206 | 0.313 | 1.26 | 0.98 | 0.522 | 0.257 | 0.331 |
| NCI-H650 | 0.413 | 0.748 | 0.606 | 0.49 | 0.355 | 0.666 | 0.961 | 0.668 | 0.309 | 0.631 | 0.887 | 0.832 | 0.739 | 0.594 | 0.483 | 0.926 | 1.01 | 0.822 | 0.566 | 0.174 |
| NCI-H2085 | 1.03 | 1.09 | 0.757 | 0.491 | 0.386 | 0.908 | 0.951 | 0.833 | 0.785 | 0.555 | 1.04 | 0.999 | 0.871 | 1.01 | 0.677 | 1.18 | 1.12 | 0.754 | 0.324 | 0.359 |
| LC-2-ad | 1.02 | 0.991 | 0.385 | 0.129 | 0.119 | 0.491 | 0.522 | 0.363 | 0.286 | 0.454 | 0.967 | 1.09 | 1.06 | 1.06 | 0.638 | 0.902 | 0.85 | 0.504 | 0.15 | 0.24 |
| NCI-H1355 | 1.42 | 1.24 | 0.833 | 0.224 | 0.256 | 1.06 | 1.24 | 1.04 | 1.07 | 1.09 | 1.2 | 1.19 | 1.12 | 1.28 | 0.877 | 0.813 | 0.914 | 0.622 | 0.494 | 0.23 |
| H3255 | 0.804 | 0.9 | 0.509 | 0.22 | 0.27 | 0.849 | 0.957 | 0.883 | 0.268 | 0.662 | 0.878 | 0.791 | 0.775 | 0.464 | 0.789 | 0.812 | 1 | 0.573 | 0.385 | 0.274 |
| NCI-H1993 | 1.03 | 1.28 | 0.578 | 0.506 | 0.517 | 0.972 | 0.819 | 0.862 | 0.822 | 0.825 | 1.09 | 1.18 | 1.14 | 0.944 | 0.937 | 0.853 | 0.645 | 0.711 | 0.328 | 0.529 |
| NCI-H1734 | 1.22 | 1.17 | 0.385 | 0.211 | 0.259 | 0.666 | 0.82 | 0.742 | 0.536 | 0.623 | 0.948 | 1.18 | 0.838 | 0.751 | 0.45 | 0.573 | 0.565 | 0.417 | 0.198 | 0.152 |
| HOP-62 | 0.954 | 0.836 | 0.661 | 0.227 | 0.0871 | 0.996 | 0.901 | 0.858 | 0.624 | 1.09 | 0.726 | 0.84 | 0.896 | 0.909 | 0.424 | 0.741 | 0.977 | 0.473 | 0.327 | 0.176 |
| LOU-NH91 | 0.5 | 0.498 | 0.492 | 0.303 | 0.319 | 0.756 | 0.784 | 0.745 | 0.728 | 0.759 | 0.509 | 0.492 | 0.485 |  | 0.452 | 0.827 | 0.672 | 0.284 | 0.151 | 0.266 |
| ChaGo-K-1 | 1.39 | 1.21 | 0.67 | 0.326 | 0.39 | 1.17 | 1.21 | 1.06 | 0.341 | 0.79 | 1.14 | 0.968 | 0.647 | 0.414 | 0.449 | 0.912 | 0.937 | 0.596 | 0.218 | 0.254 |
| PC-14 | 1.12 | 0.802 | 0.354 | 0.443 | 0.114 | 1.02 | 1.05 | 0.957 | 0.863 | 0.91 | 1.02 | 0.918 | 1.03 | 0.837 | 0.944 | 0.424 | 0.391 | 0.145 | 0.128 | 0.108 |
| NCI-H1437 | 0.486 | 0.383 | 0.332 | 0.0977 | 0.196 | 1 | 0.948 |  | 0.885 | 0.791 | 0.45 | 0.423 |  | 0.369 | 0.316 | 1.12 | 1.09 | 0.755 | 0.247 | 0.297 |
| NCI-H460 | 0.893 | 1.15 | 0.18 | 0.0575 | 0.0265 | 1.03 | 1.06 | 0.077 | 0.567 | 0.0138 | 1.15 | 0.995 | 0.16 | 0.233 | 0.0251 | 0.649 | 0.756 | 0.301 | 0.0985 | 0.0595 |
| NCI-H1666 | 0.667 | 0.804 | 0.641 | 0.257 | 0.169 | 1.03 | 0.838 |  | 1 | 0.618 | 0.839 | 0.741 |  | 0.758 | 0.505 | 0.777 | 0.957 | 0.689 | 0.623 | 0.467 |
| NCI-H1651 | 0.828 | 0.968 | 0.404 | 0.516 | 0.153 | 0.829 | 0.862 | 0.76 | 0.967 | 0.812 | 0.899 | 0.896 | 0.816 | 0.969 | 0.404 | 0.468 | 0.504 | 0.422 | 0.161 | 0.14 |
| NCI-H1755 | 1.16 | 1.07 | 0.454 | 0.358 | 0.177 | 0.921 | 0.937 | 0.895 | 0.842 | 0.833 | 1.05 | 1.03 | 0.972 | 0.99 | 0.877 | 0.412 | 0.546 | 0.344 | 0.365 | 0.274 |
| HARA | 0.948 | 1.13 | 0.543 | 0.122 | 0.213 | 1.16 | 1.14 | 0.941 | 0.206 | 0.954 | 1.01 | 1.28 | 1.13 | 1.06 | 0.809 | 0.281 | 0.357 | 0.38 | 0.177 | 0.141 |
| NCI-H596 | 0.931 | 1.15 | 0.846 | 1.08 | 0.629 | 0.981 | 0.972 | 0.973 | 1.19 | 0.907 | 0.948 |  | 0.594 | 1.03 | 0.529 | 0.906 | 0.959 | 0.877 | 0.519 | 0.551 |

Reference: the supplement of paper PMC10307832
